In patent US20260062443A1 (ALEXION PHARMACEUTICALS, INC., priority 2022, published 2026):
pIC50: −log10 of the molar value.

Target: T1, Human complement C1s enzyme (Homo sapiens, UniProt P09871)
T1 sequence (P09871 438-688 limits assumed): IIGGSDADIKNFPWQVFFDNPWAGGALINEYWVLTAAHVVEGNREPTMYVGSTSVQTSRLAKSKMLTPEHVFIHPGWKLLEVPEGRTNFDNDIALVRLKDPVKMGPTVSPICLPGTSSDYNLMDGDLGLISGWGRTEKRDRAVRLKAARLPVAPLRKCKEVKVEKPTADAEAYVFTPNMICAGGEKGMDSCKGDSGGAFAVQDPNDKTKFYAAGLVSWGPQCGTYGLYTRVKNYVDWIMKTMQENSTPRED
T1 sequence (P09871 16-437 partner limits assumed): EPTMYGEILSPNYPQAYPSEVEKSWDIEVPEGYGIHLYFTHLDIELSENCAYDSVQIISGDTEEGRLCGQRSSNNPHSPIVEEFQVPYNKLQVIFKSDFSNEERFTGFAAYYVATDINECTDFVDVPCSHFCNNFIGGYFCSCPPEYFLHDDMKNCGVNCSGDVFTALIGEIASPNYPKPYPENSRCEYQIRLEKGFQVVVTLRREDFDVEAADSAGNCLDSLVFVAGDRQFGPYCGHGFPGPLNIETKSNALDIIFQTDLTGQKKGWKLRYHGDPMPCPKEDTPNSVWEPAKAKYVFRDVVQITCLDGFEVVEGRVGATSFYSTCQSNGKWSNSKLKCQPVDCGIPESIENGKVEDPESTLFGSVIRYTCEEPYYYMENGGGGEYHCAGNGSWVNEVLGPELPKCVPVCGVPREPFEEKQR
Experiment: Human C1s enzyme assay
Format: biochemical
Conditions: human complement C1s enzyme 1.16 nM, substrate Z-L-Lys-SBzl 100 μM, 5 min preincubation; read-out: IC50 (Stars), C1s Inhibiting Activity
Outline: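 IC50 from nonlinear regression of reaction rates versus compound concentration, with rates taken from A405 recorded at 30 s intervals over 30 min after adding 100 μM Z-L-Lys-SBzl plus 100 μM DTNB. Enzyme was human C1s purified from serum, 1.16 nM, given 5 min compound preincubation at room temperature, pH 7.5 Tris/1 M NaCl.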

O=C(NCC(=O)N1C[C@H](OC(F)F)C[C@H]1C(=O)NCc1cc2cnccc2[nH]1)c1ccc(OC2CCCCC2)cc1 [Compound 383, (2S,4R)-N-((1H-pyrrolo[3,2-c]pyridin-2-yl)methyl)-1-((4-(cyclohexyloxy)benzoyl)glycyl)-4-(difluoromethoxy)pyrrolidine-2-carboxamide]
pIC50: > 7.00

COC[C@H]1C[C@@H](C(=O)N[C@H](C)c2cc3cnccc3[nH]2)N(C(=O)CNC(=O)c2ccc3c(c2)Oc2ccccc2S3)C1 [Compound 132, (2S,4S)-N-((R)-1-(1H-pyrrolo[3,2-c]pyridin-2-yl)ethyl)-4-(methoxymethyl)-1-((phenoxathiine-3-carbonyl)glycyl)pyrrolidine-2-carboxamide]
pIC50: > 7.00

O=C(NCC(=O)N1CC2(C[C@H]1C(=O)NCc1cc3cnccc3o1)OCCO2)c1ccc2c(c1)Oc1ccccc1S2 [Compound 50, (S)-N-(furo[3,2-c]pyridin-2-ylmethyl)-7-((phenoxathiine-3-carbonyl)glycyl)-1,4-dioxa-7-azaspiro[4.4]nonane-8-carboxamide]
pIC50: 6.00 to 7.00

O=C(NCC(=O)N1CC2(C[C@H]1C(=O)NCc1cc3c(Cl)nccc3[nH]1)OCCO2)c1ccc2c(c1)Oc1ccccc1S2 [Compound 42, (S)-N-((4-chloro-1H-pyrrolo[3,2-c]pyridin-2-yl)methyl)-7-((phenoxathiine-3-carbonyl)glycyl)-1,4-dioxa-7-azaspiro[4.4]nonane-8-carboxamide]
pIC50: < 6.00

COC[C@@]1(F)C[C@@H](C(=O)NCc2cc3cnccc3[nH]2)N(C(=O)CNC(=O)c2ccc3oc4ccccc4c3c2)C1 [Compound 201, (2S,4R)-N-((1H-pyrrolo[3,2-c]pyridin-2-yl)methyl)-1-((dibenzo[b,d]furan-2-carbonyl)glycyl)-4-fluoro-4-(methoxymethyl)pyrrolidine-2-carboxamide]
pIC50: > 7.00

C[C@H](NC(=O)[C@@H]1C[C@@H](OC(F)F)CN1C(=O)CNC(=O)c1ccc(Oc2ccccc2)cc1)c1cc2cnccc2[nH]1 [Compound 22, (2S,4R)-N-((S)-1-(1H-pyrrolo[3,2-c]pyridin-2-yl)ethyl)-4-(difluoromethoxy)-1-((4-phenoxybenzoyl)glycyl) pyrrolidine-2-carboxamide]
pIC50: 6.00 to 7.00

Cc1ccc(Nc2cccc(C(=O)NCC(=O)N3C[C@H](OC(F)F)C[C@H]3C(=O)NCc3cc4cnccc4[nH]3)c2)c(F)c1 [Compound 324, (2S,4R)-N-((1H-pyrrolo[3,2-c]pyridin-2-yl)methyl)-4-(difluoromethoxy)-1-((3-((2-fluoro-4-methylphenyl)amino)benzoyl)glycyl) pyrrolidine-2-carboxamide]
pIC50: > 7.00

O=C(NCC(=O)N1C[C@H](OC(F)F)C[C@H]1C(=O)NCc1cc2cnccc2[nH]1)c1cccc(Oc2ccccc2)c1 [Compound 127, (2S,4R)-N-((1H-pyrrolo[3,2-c]pyridin-2-yl)methyl)-4-(difluoromethoxy)-1-((3-phenoxybenzoyl)glycyl)pyrrolidine-2-carboxamide]
pIC50: > 7.00

O=C(NCC(=O)N1C[C@H](OC(F)F)C[C@H]1C(=O)NCc1ccc2nccn2c1)c1ccc2c(c1)Oc1ccccc1S2 [Compound 233, (2S,4R)-4-(difluoromethoxy)-N-(imidazo[1,2-a]pyridin-6-ylmethyl)-1-((phenoxathiine-3-carbonyl)glycyl)pyrrolidine-2-carboxamide]
pIC50: < 6.00

O=C(NCC(=O)N1C[C@H](OC(F)F)C[C@H]1C(=O)NCc1ccc2c(n1)NCC2)c1ccc2c(c1)Oc1ccccc1S2 [Compound 265, (2S,4R)-4-(difluoromethoxy)-N-((2,3-dihydro-1H-pyrrolo[2,3-b]pyridin-6-yl)methyl)-1-((phenoxathiine-3-carbonyl)glycyl)pyrrolidine-2-carboxamide]
pIC50: < 6.00

Cc1ccc(Oc2cc(C(=O)NCC(=O)N3C[C@H](OC(F)F)C[C@H]3C(=O)NCc3cc4cnccc4[nH]3)ccc2C)cc1 [Compound 244, (2S,4R)-N-((1H-pyrrolo[3,2-c]pyridin-2-yl)methyl)-4-(difluoromethoxy)-1-((4-methyl-3-(p-tolyloxy)benzoyl)glycyl) pyrrolidine-2-carboxamide]
pIC50: > 7.00

C[C@@H](NC(=O)[C@@H]1CC2(CN1C(=O)CNC(=O)c1ccc3oc4ccccc4c3c1)OCCO2)c1cc2cnccc2[nH]1 [Compound 300, (S)-N-((R)-1-(1H-pyrrolo[3,2-c]pyridin-2-yl)ethyl)-7-((dibenzo[b,d]furan-2-carbonyl)glycyl)-1,4-dioxa-7-azaspiro[4.4]nonane-8-carboxamide]
pIC50: > 7.00

CS(=O)(=O)[C@@H]1C[C@@H](C(=O)NCc2cc3cnccc3[nH]2)N(C(=O)CNC(=O)c2ccc3oc4ccccc4c3c2)C1 [Compound 202, (2S,4R)-N-((1H-pyrrolo[3,2-c]pyridin-2-yl)methyl)-1-((dibenzo[b,d]furan-2-carbonyl)glycyl)-4-(methylsulfonyl)pyrrolidine-2-carboxamide]
pIC50: > 7.00

CC1(C)c2ccccc2-c2cc(C(=O)NCC(=O)N3C[C@H](OC(F)F)C[C@H]3C(=O)NCc3cc4cnccc4[nH]3)ccc21 [Compound 301, (2S,4R)-N-((1H-pyrrolo[3,2-c]pyridin-2-yl)methyl)-4-(difluoromethoxy)-1-((9,9-dimethyl-9H-fluorene-3-carbonyl)glycyl) pyrrolidine-2-carboxamide]
pIC50: > 7.00

C[C@@]12C[C@@H]1N(C(=O)CNC(=O)c1ccc(Oc3ccccc3)cc1)[C@H](C(=O)NCc1cc3c(s1)C(N)=NCC3)C2 [Compound 1, (1S,3S,5S)-N-((7-amino-4,5-dihydrothieno[2,3-c]pyridin-2-yl)methyl)-5-methyl-2-((4-phenoxybenzoyl)glycyl)-2-azabicyclo[3.1.0]hexane-3-carboxamide]
pIC50: < 6.00

O=C(NCC(=O)N1CC2(C[C@H]1C(=O)NCc1cc3ccncn3c1)OCCO2)c1ccc2c(c1)Oc1ccccc1S2 [Compound 276, (S)-7-((phenoxathiine-3-carbonyl)glycyl)-N-(pyrrolo[1,2-c]pyrimidin-6-ylmethyl)-1,4-dioxa-7-azaspiro[4.4]nonane-8-carboxamide]
pIC50: < 6.00

C[C@@H](NC(=O)[C@@H]1C[C@@H](OC(F)F)CN1C(=O)CNC(=O)c1ccc2c(c1)-c1ccccc1C2(F)F)c1cc2cnccc2[nH]1 [Compound 77, (2S,4R)-N-((R)-1-(1H-pyrrolo[3,2-c]pyridin-2-yl)ethyl)-1-((9,9-difluoro-9H-fluorene-3-carbonyl)glycyl)-4-(difluoromethoxy)pyrrolidine-2-carboxamide]
pIC50: > 7.00

O=C(NCC(=O)N1C[C@H](OC(F)F)C[C@H]1C(=O)NCc1ccc2ncoc2c1)c1ccc2c(c1)Oc1ccccc1S2 [Compound 221, (2S,4R)-N-(benzo[d]oxazol-6-ylmethyl)-4-(difluoromethoxy)-1-((phenoxathiine-3-carbonyl)glycyl)pyrrolidine-2-carboxamide]
pIC50: < 6.00

COc1ccc2[nH]c(CNC(=O)[C@@H]3CC4(CN3C(=O)CNC(=O)c3ccc5c(c3)Oc3ccccc3S5)OCCO4)cc2c1 [Compound 52, (S)-N-((5-methoxy-1H-indol-2-yl)methyl)-7-((phenoxathiine-3-carbonyl)glycyl)-1,4-dioxa-7-azaspiro[4.4]nonane-8-carboxamide]
pIC50: < 6.00

O=C(NCC(=O)N1CC2(C[C@H]1C(=O)NCc1cc3cnccc3[nH]1)OCCO2)c1ccc2c(c1)-c1ccccc1C2(F)F [Compound 2, (S)-N-((1H-pyrrolo[3,2-c]pyridin-2-yl)methyl)-7-((9,9-difluoro-9H-fluorene-3-carbonyl)glycyl)-1,4-dioxa-7-azaspiro[4.4]nonane-8-carboxamide]
pIC50: > 7.00

Cc1ccc(Oc2ccc(C(=O)NCC(=O)N3C[C@H](OC(F)F)C[C@H]3C(=O)NCc3cc4cnccc4[nH]3)cc2)c(F)c1 [Compound 316, (2S,4R)-N-((1H-pyrrolo[3,2-c]pyridin-2-yl)methyl)-4-(difluoromethoxy)-1-((4-(2-fluoro-4-methylphenoxy)benzoyl)glycyl) pyrrolidine-2-carboxamide]
pIC50: > 7.00

O=C(NCC(=O)N1CC2(C[C@H]1C(=O)NCc1cc3cnccc3[nH]1)OCCO2)c1ccc2c(c1)Oc1ccccc1S2 [Compound 4, (S)-N-((1H-pyrrolo[3,2-c]pyridin-2-yl)methyl)-7-((phenoxathiine-3-carbonyl)glycyl)-1,4-dioxa-7-azaspiro[4.4]nonane-8-carboxamide]
pIC50: > 7.00

C[C@@]12C[C@@H]1N(C(=O)CNC(=O)CCCOc1ccccc1)[C@H](C(=O)NC1(c3nc4cnccc4[nH]3)CC1)C2 [Compound 109, (1S,3S,5S)-N-(1-(1H-imidazo[4,5-c]pyridin-2-yl)cyclopropyl)-5-methyl-2-((4-phenoxybutanoyl)glycyl)-2-azabicyclo[3.1.0]hexane-3-carboxamide]
pIC50: < 6.00
